Laboratory results reported in patent US11339130B1 (Blade Therapeutics, Inc., priority 2016, dated 2022).
Read-outs that look alike come from different tables or passages of the source.

What was measured:
Human Calpain 9/NS1 = biological target: T1, Human Calpain 9/NS1 (Homo sapiens, UniProt O14815); assay: Calpain inhibition continuous fluorescence (FRET) assay, Human Calpain 9/NS1; type: biochemical; conditions: read-out: Human Calpain 9/NS1 IC50
T1 sequence (O14815 1-690): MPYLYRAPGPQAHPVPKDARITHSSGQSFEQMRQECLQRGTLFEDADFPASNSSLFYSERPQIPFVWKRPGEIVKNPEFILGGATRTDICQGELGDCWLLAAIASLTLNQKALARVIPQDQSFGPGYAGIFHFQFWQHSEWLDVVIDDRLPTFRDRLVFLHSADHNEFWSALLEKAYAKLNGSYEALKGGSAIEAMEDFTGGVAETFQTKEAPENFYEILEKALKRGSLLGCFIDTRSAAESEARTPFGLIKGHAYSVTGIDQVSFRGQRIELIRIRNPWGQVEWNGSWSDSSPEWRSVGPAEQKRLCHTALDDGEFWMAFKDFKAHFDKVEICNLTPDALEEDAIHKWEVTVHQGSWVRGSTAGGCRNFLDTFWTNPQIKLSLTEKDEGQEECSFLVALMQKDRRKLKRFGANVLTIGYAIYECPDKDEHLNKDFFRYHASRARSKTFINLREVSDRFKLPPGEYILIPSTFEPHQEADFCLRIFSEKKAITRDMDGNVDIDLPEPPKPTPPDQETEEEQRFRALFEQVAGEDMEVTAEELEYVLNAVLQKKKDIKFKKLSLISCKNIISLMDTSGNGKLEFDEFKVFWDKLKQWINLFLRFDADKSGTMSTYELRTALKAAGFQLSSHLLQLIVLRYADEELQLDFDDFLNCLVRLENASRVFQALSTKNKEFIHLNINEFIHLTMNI
T1 sequence (P04632 1-268 partner): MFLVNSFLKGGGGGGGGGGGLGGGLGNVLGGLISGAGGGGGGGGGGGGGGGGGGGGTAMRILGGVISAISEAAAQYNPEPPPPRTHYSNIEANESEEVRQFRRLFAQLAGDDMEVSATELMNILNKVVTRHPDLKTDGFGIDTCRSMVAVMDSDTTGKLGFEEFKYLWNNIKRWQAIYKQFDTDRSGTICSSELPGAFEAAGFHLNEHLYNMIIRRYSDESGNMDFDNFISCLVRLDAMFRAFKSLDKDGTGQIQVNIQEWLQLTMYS
Summary of the method: (§1)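 Calpain activity is measured kinetically with a quenched FRET peptide in 50 mM Tris pH 7.5, 100 mM NaCl, 1 mM DTT, with CaCl2 triggering activation. Rates over 1-5 min are plotted against log inhibitor to obtain IC50 by 4-parameter logistic fitting.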

[1] = test system: Calpain activity in SH-SY5Y cells (SBDP-150); assay: SH-SY5Y Spectrin western blot assay (SBDP-150 breakdown product, A23187-induced); type: cell-based; conditions: Homo sapiens, SH-SY5Y cells, read-out: SH-SY5Y Spectrin IC50
Human Calpain 2/NS1 = biological target: T2, Human Calpain 2/NS1 (Homo sapiens, UniProt P17655); assay: Calpain inhibition continuous fluorescence (FRET) assay, Human Calpain 2/NS1; type: biochemical; conditions: read-out: Human Calpain 2/NS1 IC50
T2 sequence (P17655 1-700): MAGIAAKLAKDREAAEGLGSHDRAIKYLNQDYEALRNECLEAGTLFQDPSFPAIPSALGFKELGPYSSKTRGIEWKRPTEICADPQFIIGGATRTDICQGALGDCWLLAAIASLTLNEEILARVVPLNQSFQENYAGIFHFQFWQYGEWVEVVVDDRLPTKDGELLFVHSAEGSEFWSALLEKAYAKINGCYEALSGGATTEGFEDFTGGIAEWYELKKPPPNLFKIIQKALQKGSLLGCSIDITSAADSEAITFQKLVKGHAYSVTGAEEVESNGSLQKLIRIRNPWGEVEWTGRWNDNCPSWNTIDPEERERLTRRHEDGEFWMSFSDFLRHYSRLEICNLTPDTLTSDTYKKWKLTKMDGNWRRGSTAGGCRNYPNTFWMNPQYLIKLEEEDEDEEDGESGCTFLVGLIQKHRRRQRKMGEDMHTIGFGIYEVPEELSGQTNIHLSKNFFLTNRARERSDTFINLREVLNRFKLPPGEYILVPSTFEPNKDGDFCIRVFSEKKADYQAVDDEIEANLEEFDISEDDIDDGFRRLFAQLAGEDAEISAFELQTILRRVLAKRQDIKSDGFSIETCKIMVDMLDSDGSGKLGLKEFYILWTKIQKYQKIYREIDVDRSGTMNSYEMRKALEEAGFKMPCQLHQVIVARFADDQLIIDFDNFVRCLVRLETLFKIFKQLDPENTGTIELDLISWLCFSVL
T2 sequence (P04632 1-268 partner): T1 sequence (P04632 1-268 partner)
Summary of the method: as §1

[2] = test system: Calpain activity in SH-SY5Y cells; assay: SH-SY5Y + AMC fluorescence assay (Suc-LLVY-AMC substrate); type: cell-based; conditions: read-out: SH-SY5Y + AMC IC50
Human Calpain 1/NS1 = biological target: T3, Human Calpain 1/NS1 (Homo sapiens, UniProt P07384); assay: Calpain inhibition continuous fluorescence (FRET) assay, Human Calpain 1/NS1; type: biochemical; conditions: read-out: Human Calpain 1/NS1 IC50
T3 sequence (P07384 1-714): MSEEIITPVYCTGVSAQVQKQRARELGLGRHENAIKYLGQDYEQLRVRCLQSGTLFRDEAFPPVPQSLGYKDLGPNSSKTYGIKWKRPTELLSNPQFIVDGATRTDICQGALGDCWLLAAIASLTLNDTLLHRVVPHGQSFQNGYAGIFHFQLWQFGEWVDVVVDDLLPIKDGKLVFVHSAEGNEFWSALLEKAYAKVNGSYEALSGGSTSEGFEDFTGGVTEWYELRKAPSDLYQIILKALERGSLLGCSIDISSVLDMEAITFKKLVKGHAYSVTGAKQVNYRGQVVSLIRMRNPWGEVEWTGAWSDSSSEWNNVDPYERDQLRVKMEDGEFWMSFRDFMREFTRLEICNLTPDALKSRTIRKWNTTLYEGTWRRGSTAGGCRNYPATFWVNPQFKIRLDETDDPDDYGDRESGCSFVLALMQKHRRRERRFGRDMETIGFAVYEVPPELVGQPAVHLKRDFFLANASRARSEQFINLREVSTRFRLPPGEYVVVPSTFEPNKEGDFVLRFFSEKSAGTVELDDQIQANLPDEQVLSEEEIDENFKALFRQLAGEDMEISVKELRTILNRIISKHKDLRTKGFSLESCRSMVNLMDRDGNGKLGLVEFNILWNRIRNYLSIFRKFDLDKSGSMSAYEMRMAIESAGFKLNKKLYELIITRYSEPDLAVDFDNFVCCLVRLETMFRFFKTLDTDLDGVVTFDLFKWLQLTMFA
T3 sequence (P04632 1-268 partner): T1 sequence (P04632 1-268 partner)
Summary of the method: as §1

[3] = A23187-induced SBDP-150, western blot
[4] = Column D, A23187-induced SBDP-150

Row | SMILES | IC50 (Human Calpain 9/NS1) [µM] | IC50 [1, 3] [µM] | IC50 (Human Calpain 2/NS1) [µM] | IC50 [2] [µM] | IC50 (Human Calpain 1/NS1) [µM] | IC50 (Human Calpain 9/NS1; Column C) [µM] | IC50 [1, 4] [µM] | IC50 (Human Calpain 2/NS1; Column B) [µM] | IC50 ([2]; Column E) [µM] | IC50 (Human Calpain 1/NS1; Column A) [µM]
1 | NC(=O)C(=O)C(Cc1ccccc1)NC(=O)c1cn(C(F)F)nc1-c1cc(F)ccc1F (stereo not shown) [Compound 552, N-(4-amino-3,4-dioxo-1-phenylbutan-2-yl)-1-(difluoromethyl)-3-(2,5-difluorophenyl)-1H-pyrazole-4-carboxamide] | < 3 | < 10 | < 3 | < 10 | < 3 | – | – | – | – | –
2 | Cc1ccc(-n2nc(C)cc2C(=O)N[C@@H](Cc2ccccc2)C(=O)C(N)=O)nc1 [Compound 120, (S)—N-(4-amino-3,4-dioxo-1-phenylbutan-2-yl)-3-methyl-1-(5-methylpyridin-2-yl)-1H-pyrazole-5-carboxamide] | – | – | – | – | – | < 3 | < 10 | < 3 | 10 to 25 | < 3
3 | CC(=O)NCc1cccc(-n2nc(C)cc2C(=O)N[C@@H](Cc2ccccc2)C(=O)C(N)=O)c1 [Compound 143, (S)-1-(3-(acetamidomethyl)phenyl)-N-(4-amino-3,4-dioxo-1-phenylbutan-2-yl)-3-methyl-1H-pyrazole-5-carboxamide] | – | – | – | – | – | < 3 | 10 to 25 | < 3 | < 10 | < 3
4 | NC(=O)C(=O)[C@H](Cc1ccccc1)NC(=O)c1conc1-c1ccccc1F [Compound 277, (S)—N-(4-amino-3,4-dioxo-1-phenylbutan-2-yl)-3-(2-fluorophenyl)isoxazole-4-carboxamide] | – | – | – | – | – | < 3 | 10 to 25 | < 3 | < 10 | < 3
5 | NC(=O)C(=O)C(Cc1ccccc1)NC(=O)c1cn(C(F)F)nc1-c1cccc2cnccc12 (stereo not shown) [Compound 598, N-(4-amino-3,4-dioxo-1-phenylbutan-2-yl)-1-(difluoromethyl)-3-(isoquinolin-5-yl)-1H-pyrazole-4-carboxamide] | < 3 | < 10 | < 3 | < 10 | < 3 | – | – | – | – | –
6 | Cn1cc(C(=O)NC(C(=O)C(N)=O)c2ccc3ccccc3c2)c(-c2ccccc2F)n1 (stereo not shown) [Compound 579, N-(3-amino-1-(naphthalen-2-yl)-2,3-dioxopropyl)-3-(2-fluorophenyl)-1-methyl-1H-pyrazole-4-carboxamide] | < 3 | > 25 | < 3 | < 10 | < 3 | – | – | – | – | –
7 | Cc1c(F)cccc1-c1nsnc1C(=O)NC(Cc1ccccc1)C(=O)C(N)=O (stereo not shown) [Compound 375, N-(4-amino-3,4-dioxo-1-phenylbutan-2-yl)-4-(3-fluoro-2-methylphenyl)-1,2,5-thiadiazole-3-carboxamide] | < 3 | < 10 | < 3 | < 10 | < 3 | – | – | – | – | –
8 | C#Cc1nccc(-n2nc(C)cc2C(=O)NC(Cc2ccccc2)C(=O)C(N)=O)n1 (stereo not shown) [Compound 432, N-(4-amino-3,4-dioxo-1-phenylbutan-2-yl)-1-(2-ethynylpyrimidin-4-yl)-3-methyl-1H-pyrazole-5-carboxamide] | < 3 | < 10 | < 3 | < 10 | < 3 | – | – | – | – | –
9 | Cn1cc(C(=O)N[C@H](C=O)Cc2ccccc2)c(-c2cccc(F)c2)n1 [Compound 328, (S)-3-(3-fluorophenyl)-1-methyl-N-(1-oxo-3-phenylpropan-2-yl)-1H-pyrazole-4-carboxamide] | < 3 | 10 to 25 | < 3 | > 25 | < 3 | – | – | – | – | –
10 | Cc1ccc(C)c(-c2nn(C(F)F)cc2C(=O)NC(Cc2ccccc2)C(=O)C(N)=O)c1 (stereo not shown) [Compound 524, N-(4-amino-3,4-dioxo-1-phenylbutan-2-yl)-1-(difluoromethyl)-3-(2,5-dimethylphenyl)-1H-pyrazole-4-carboxamide] | < 3 | 10 to 25 | < 3 | < 10 | < 3 | – | – | – | – | –
11 | Cn1cc(C(=O)NC(Cc2ccccc2)C(=O)C(N)=O)c(-c2ccc3c(c2)OCO3)n1 (stereo not shown) [Compound 567, N-(4-amino-3,4-dioxo-1-phenylbutan-2-yl)-3-(benzo[d][1,3]dioxol-5-yl)-1-methyl-1H-pyrazole-4-carboxamide] | < 3 | < 10 | < 3 | < 10 | < 3 | – | – | – | – | –
12 | NC(=O)C(=O)C(Cc1ccccc1)NC(=O)c1nsnc1-c1ccc(CNC(=O)c2ccc(F)cc2)cc1 (stereo not shown) [Compound 363, N-(4-amino-3,4-dioxo-1-phenylbutan-2-yl)-4-(4-((4-fluorobenzamido)methyl)phenyl)-1,2,5-thiadiazole-3-carboxamide] | < 3 | < 10 | < 3 | > 25 | < 3 | – | – | – | – | –
13 | Cn1cc(C(=O)N[C@H](C(=O)C(N)=O)C2Cc3ccccc3C2)c(-c2ccccc2F)n1 [Compound 553, (S)—N-(3-amino-1-(2,3-dihydro-1H-inden-2-yl)-2,3-dioxopropyl)-3-(2-fluorophenyl)-1-methyl-1H-pyrazole-4-c arboxamide] | < 3 | > 25 | < 3 | < 10 | < 3 | – | – | – | – | –
14 | Cn1cc(C(=O)NC(CCc2ccccc2)C(=O)C(N)=O)c(-c2ccccc2)n1 (stereo not shown) [Compound 417, N-(1-amino-1,2-dioxo-5-phenylpentan-3-yl)-1-methyl-3-phenyl-1H-pyrazole-4-carboxamide] | < 3 | > 25 | < 3 | > 25 | < 3 | – | – | – | – | –
